Reference: PMC5382172 (Frontiers in Molecular Neuroscience, 2017)
pEC50: −log10 of the molar value. Several values for one entry are separate records, joined by “and”; a condition that tells them apart may be missing. Equal entries are not always repeated.

How the values were obtained:
[1] = biological target: T1, GluClαWT (GLC-1) homomeric receptor (Caenorhabditis elegans, UniProt G5EBR3); test: Whole-cell patch clamp in CHO cells transfected with GluClαWT subunit alone; assay type: cell-based; details: αWT alone, 500 nM IVM, -60 mV
T1 construct: entry codes of the full-length subunits used in this study; expressed in transfected cells; host or cells: CHO cells, transient transfection, pcDNA3.1
T1 sequence (G5EBR3 21-461): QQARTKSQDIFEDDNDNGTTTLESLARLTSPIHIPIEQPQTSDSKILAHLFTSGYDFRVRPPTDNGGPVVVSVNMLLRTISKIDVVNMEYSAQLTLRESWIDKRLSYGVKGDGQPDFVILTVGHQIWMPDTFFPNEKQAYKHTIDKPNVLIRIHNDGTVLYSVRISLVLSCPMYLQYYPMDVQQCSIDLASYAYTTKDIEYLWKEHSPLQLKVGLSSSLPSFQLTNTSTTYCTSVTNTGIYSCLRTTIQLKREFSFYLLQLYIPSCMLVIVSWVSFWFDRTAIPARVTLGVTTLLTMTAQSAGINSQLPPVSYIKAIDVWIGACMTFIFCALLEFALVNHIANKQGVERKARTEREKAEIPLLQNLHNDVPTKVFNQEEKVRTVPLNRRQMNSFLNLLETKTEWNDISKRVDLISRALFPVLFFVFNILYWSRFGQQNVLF

GluClαWT/βWT receptor [2] = biological target: T2, GluClαWT/βWT receptor (Caenorhabditis elegans, UniProt G5EBR3+Q17328); test: Whole-cell patch clamp in CHO cells, GluClαWT/βWT receptor; assay type: cell-based
T2 construct: entry codes of the full-length subunits used in this study; expressed in transfected cells; host or cells: CHO cells, transient co-transfection 1:1, pcDNA3.1
T2 sequence (G5EBR3 21-461): T1 sequence (G5EBR3 21-461)
T2 sequence (Q17328 23-434): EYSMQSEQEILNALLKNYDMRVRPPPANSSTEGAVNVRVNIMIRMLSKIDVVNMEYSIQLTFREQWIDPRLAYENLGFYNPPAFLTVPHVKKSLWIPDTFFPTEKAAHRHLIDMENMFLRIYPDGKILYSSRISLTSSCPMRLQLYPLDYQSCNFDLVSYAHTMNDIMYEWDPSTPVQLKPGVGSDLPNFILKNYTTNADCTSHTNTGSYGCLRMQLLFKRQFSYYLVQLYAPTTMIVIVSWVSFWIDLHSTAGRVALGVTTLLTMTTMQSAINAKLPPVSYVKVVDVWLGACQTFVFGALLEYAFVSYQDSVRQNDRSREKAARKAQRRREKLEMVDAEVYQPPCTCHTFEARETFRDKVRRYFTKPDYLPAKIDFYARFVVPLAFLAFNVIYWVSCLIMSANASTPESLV
Method: (§1) Chinese hamster ovary (CHO) cells were cultured as previously (Bar-Lev et al., [2011]) in Dulbecco’s Modified Eagle Medium (DMEM) containing 10% fetal calf serum, 2 mM glutamax, 100 Units/ml penicillin G and 100 μg/ml streptomycin, and grown in 5% CO2 at 37°C under 90%–95% humidity. The cells were seeded on glass coverslips (13-mm diameter) placed in a 24-multiwell plate. […] For the expression of GluCl receptors, cells were transiently co-transfected with pcDNA3.1 plasmids containing the ORFs of interest using transit-LT1 transfection reagent (Mirus, Madison, WI, USA), according to the manufacturer’s protocol. The cDNAs encoding the C. elegans GluClα (GLC-1) or its mutated versions and the GluClβ (GLC-2) subunits (200–600 ng per well) were used at 1:1 ratio. The pIRES-CD8 plasmid (200 ng per well) was added to enable the visualization of the expressing cells by beads coated with anti-CD8 antibodies (Invitrogen). For high-level expression of the GluClαF276A/βWT mutant receptor in experiments assigned to determine its IVM-EC50, we used the X-tremeGENE HP DNA Transfection Reagent (Roche Life Science). Recordings were performed 72–96 h following the transfection.
Whole-cell patch clamp recordings were performed as described previously (Bar-Lev et al., [2011]) in CHO cells that were prepared as detailed above. The normal external solution (NES) contained (in millimolar): 140 NaCl, 2.8 KCl, 2 CaCl2, 2 MgCl2, 10 glucose and 10 HEPES, adjusted to pH 7.35 with NaOH (310 mOsm/L). The pipette solution contained (in millimolar): 130 KCl, 4 MgCl2, 4 Na2ATP, 1 EGTA and 10 HEPES, adjusted to pH 7.35 with KOH (290 mOsm/L). The osmolarity of these solutions was maintained by adding sucrose. The electrode resistance was 6–10 MΩ when filled with the pipette solution. External solutions were applied onto the cell by using the VC-77SP fast-step system (Warner Instruments, Hamden, CT, USA) combined with N2 pressure of 3–4 psi to produce laminar flow of the external solution onto the patched cell. All measurements were performed at room temperature. The currents were measured with an Axopatch 200B patch-clamp amplifier (Molecular Devices, Sunnyvale, CA, USA) and a Digidata 1440A interface (Molecular Devices). Acquisition of recording data was performed at 2.5 kHz and recordings were low-pass filtered at 1 kHz, through a four-pole Bessel filter. The pClamp 10 software (Molecular Devices) was used for data acquisition. […] Five-hundred milliseconds after the application started (which is also after the current reached to its peak at −60 mV), the voltage was stepped from −60 mV to −80 mV for 50 ms followed by a 250-ms-long voltage ramp ranging from −80 mV to +80 mV.
Dose-response curves were fitted to the data points by a nonlinear regression using the Hill Equation 1,

GluClαP192E/βWT receptor = biological target: T3, GluClαP192E/βWT receptor (Caenorhabditis elegans, UniProt G5EBR3+Q17328, P192E); test: Whole-cell patch clamp in CHO cells, GluClαP192E/βWT receptor; assay type: cell-based; details: 500 nM IVM, -60 mV
T3 construct: entry codes of the full-length subunits used in this study; expressed in transfected cells; host or cells: CHO cells, transient co-transfection 1:1, pcDNA3.1
Method: as §1, with “For high-level expression of the GluClαF276A/βWT mutant receptor in experiments assigned to determine its IVM-EC50, we used the X-tremeGENE HP DNA Transfection Reagent (Roche Life Science). Recordings were performed 72–96 h following the transfection.” left out
(§2) Whole-cell patch clamp recordings were performed as described previously (Bar-Lev et al., [2011]) in CHO cells that were prepared as detailed above. […] The currents were measured with an Axopatch 200B patch-clamp amplifier (Molecular Devices, Sunnyvale, CA, USA) and a Digidata 1440A interface (Molecular Devices). […]

GluClαP192M/βWT receptor = biological target: T4, GluClαP192M/βWT receptor (Caenorhabditis elegans, UniProt G5EBR3+Q17328, P192M); test: Whole-cell patch clamp in CHO cells, GluClαP192M/βWT receptor; assay type: cell-based; details: 500 nM IVM, -60 mV
T4 construct: entry codes of the full-length subunits used in this study; expressed in transfected cells; host or cells: CHO cells, transient co-transfection 1:1, pcDNA3.1
Method: as §1, with “For high-level expression of the GluClαF276A/βWT mutant receptor in experiments assigned to determine its IVM-EC50, we used the X-tremeGENE HP DNA Transfection Reagent (Roche Life Science). Recordings were performed 72–96 h following the transfection.” left out
as §2

GluClαP192Y/βWT receptor = biological target: T5, GluClαP192Y/βWT receptor (Caenorhabditis elegans, UniProt G5EBR3+Q17328, P192Y); test: Whole-cell patch clamp in CHO cells, GluClαP192Y/βWT receptor; assay type: cell-based; details: 500 nM IVM, -60 mV
T5 construct: entry codes of the full-length subunits used in this study; expressed in transfected cells; host or cells: CHO cells, transient co-transfection 1:1, pcDNA3.1
Method: as §1, with “For high-level expression of the GluClαF276A/βWT mutant receptor in experiments assigned to determine its IVM-EC50, we used the X-tremeGENE HP DNA Transfection Reagent (Roche Life Science). Recordings were performed 72–96 h following the transfection.” left out
as §2

GluClαE273R/βWT receptor = biological target: T6, GluClαE273R/βWT receptor (Caenorhabditis elegans, UniProt G5EBR3+Q17328, E273R); test: Whole-cell patch clamp in CHO cells, GluClαE273R/βWT receptor; assay type: cell-based; details: 500 nM IVM, -60 mV
T6 construct: entry codes of the full-length subunits used in this study; expressed in transfected cells; host or cells: CHO cells, transient co-transfection 1:1, pcDNA3.1
Method: as §1, with “For high-level expression of the GluClαF276A/βWT mutant receptor in experiments assigned to determine its IVM-EC50, we used the X-tremeGENE HP DNA Transfection Reagent (Roche Life Science). Recordings were performed 72–96 h following the transfection.” left out
as §2

GluClαWT/βWT receptor [3] = biological target: T2, GluClαWT/βWT receptor; set-up: method as in Degani-Katzav et al., [2016]; details: CHO cells co-transfected with WT α and β subunits; ref Degani-Katzav et al., [2016]; cited from earlier work
wild type GluClα/βR = tested on: wild type GluClα/βR; set-up: method as in Cully et al., [1994]; details: 5 nM IVM, Xenopus oocytes; ref Cully et al., [1994]; cited from earlier work
[4] = cumulative IVM concentrations, -60 mV

T6 sequence (G5EBR3 21-461 E273R, one chain of several): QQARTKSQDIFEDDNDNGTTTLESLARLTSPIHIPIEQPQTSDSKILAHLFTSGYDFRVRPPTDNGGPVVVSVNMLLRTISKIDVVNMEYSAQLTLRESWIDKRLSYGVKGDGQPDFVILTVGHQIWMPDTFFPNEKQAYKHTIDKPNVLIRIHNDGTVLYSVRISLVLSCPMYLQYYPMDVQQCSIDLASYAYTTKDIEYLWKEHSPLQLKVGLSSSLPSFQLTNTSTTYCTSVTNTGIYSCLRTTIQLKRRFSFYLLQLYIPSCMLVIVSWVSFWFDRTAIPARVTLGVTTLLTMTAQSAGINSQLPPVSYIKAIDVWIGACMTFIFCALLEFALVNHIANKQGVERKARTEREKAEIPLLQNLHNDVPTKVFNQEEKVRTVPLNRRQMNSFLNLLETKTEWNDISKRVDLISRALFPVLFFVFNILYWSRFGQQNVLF
T3 sequence (G5EBR3 21-461 P192E, one chain of several): as the sequence (G5EBR3 21-461 E273R, one chain of several) above, with P172E, R253E counted along it
T4 sequence (G5EBR3 21-461 P192M, one chain of several): as the sequence (G5EBR3 21-461 E273R, one chain of several) above, with P172M, R253E counted along it
T5 sequence (G5EBR3 21-461 P192Y, one chain of several): as the sequence (G5EBR3 21-461 E273R, one chain of several) above, with P172Y, R253E counted along it

## CC[C@H](C)[C@H]1O[C@]2(CC[C@@H]1C)C[C@@H]1C[C@@H](C/C=C(\C)[C@@H](O[C@H]3C[C@H](OC)[C@@H](O[C@H]4C[C@H](OC)[C@@H](O)[C@H](C)O4)[C@H](C)O3)[C@@H](C)/C=C/C=C3\CO[C@@H]4[C@H](O)C(C)=C[C@@H](C(=O)O1)[C@]34O)O2 [IVM, ivermectin]
[1]
  IVM (500 nM) Amplitude: 1.0 ± 0.3 (14) nA
GluClαWT/βWT receptor [2]; 7 nM IVM
  Fold decrease in Glu-EC50 observed after pre-exposure to IVM: ~ 5 fold and 5 fold
GluClαWT/βWT receptor [2]; 0.3 mM Glu before and after exposure to 7 nM IVM
  fold-potentiation of Glu-elicited response by IVM: ~ 6 fold and 5.9 ± 0.6 fold
GluClαWT/βWT receptor [2]; CHO cells, 500 nM IVM, -60 mV
  IVM (500 nM) Amplitude: 1.8 ± 0.1 nA
GluClαWT/βWT receptor [2]; [4]
  pEC50: 7.40
  Hill coefficient of activation by IVM: 1.5 and 1.5 ± 0.2
GluClαP192E/βWT receptor
  IVM (500 nM) Amplitude: 1.7 ± 0.3 nA
GluClαP192M/βWT receptor
  IVM (500 nM) Amplitude: 1.4 ± 0.2 nA
GluClαP192Y/βWT receptor
  IVM (500 nM) Amplitude: 1.2 ± 0.2 nA
GluClαE273R/βWT receptor
  IVM (500 nM) Amplitude: 1.0 ± 0.2 nA
GluClαWT/βWT receptor [3]
  response to IVM: robust responses
Wild type GluClα/βR
  potentiation of Glu-sensitive currents by IVM: ~ 5 fold
